Reference: ChEMBL document CHEMBL5465560, “Selectivity Literature for EUbOPEN Chemogenomic Library” (2024)

Key:
[1] = biological target: T1, Mitogen-activated protein kinase 15 (Homo sapiens) (UniProt Q8TD08); test: Selectivity interaction (KinomeScan (DiscoverX)) EUB0001079a MAPK15; settings: at 1 µM
T1 sequence (whole entry): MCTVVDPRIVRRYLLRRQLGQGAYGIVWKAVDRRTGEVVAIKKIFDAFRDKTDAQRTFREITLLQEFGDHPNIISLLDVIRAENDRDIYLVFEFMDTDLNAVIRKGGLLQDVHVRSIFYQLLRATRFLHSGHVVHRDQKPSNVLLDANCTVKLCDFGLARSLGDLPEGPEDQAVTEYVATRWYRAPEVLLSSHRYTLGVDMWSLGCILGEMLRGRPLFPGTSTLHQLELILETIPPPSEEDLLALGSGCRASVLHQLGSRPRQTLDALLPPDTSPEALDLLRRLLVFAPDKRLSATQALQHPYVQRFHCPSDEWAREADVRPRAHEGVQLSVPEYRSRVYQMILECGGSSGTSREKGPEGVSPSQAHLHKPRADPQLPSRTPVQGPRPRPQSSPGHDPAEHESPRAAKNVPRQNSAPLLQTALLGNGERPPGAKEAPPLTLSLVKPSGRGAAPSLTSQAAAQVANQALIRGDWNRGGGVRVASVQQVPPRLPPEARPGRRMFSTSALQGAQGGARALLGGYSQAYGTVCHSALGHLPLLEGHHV

[2] = Selectivity interaction (KinomeScan (DiscoverX)) EUB0001079a CDPK1; settings: at 1 µM
[3] = biological target: Tyrosine-protein kinase Fes/Fps (Homo sapiens) (UniProt P07332); test: Selectivity interaction (Kinase panel (DSF assay)) EUB0001558a FES
[4] = biological target: Phosphatidylinositol 4,5-bisphosphate 3-kinase catalytic subunit alpha isoform (Homo sapiens) (UniProt P42336); test: Selectivity interaction (Kinase panel (Eurofins)) EUB0001564a PIK3CA; settings: at 1 µM
[5] = biological target: Mitogen-activated protein kinase kinase kinase 11 (Homo sapiens) (UniProt Q16584); test: Selectivity interaction (Kinase panel (Eurofins)) EUB0001564a MAP3K11; settings: at 1 µM
[6] = biological target: Ribosomal protein S6 kinase beta-1 (Homo sapiens, UniProt P23443); test: Selectivity interaction (ActivX KiNativ screen (kinase selectivity in THP-1 cell lysates)) EUB0000639a RPS6KB1; type: subcellular; settings: lysate, at 1 µM
[7] = biological target: Tyrosine-protein kinase ABL2 (Homo sapiens, UniProt P42684); test: Selectivity interaction (Kinase panel (Invitrogen)) EUB0000639a ABL2; settings: at 200 nM
[8] = biological target: Calcium/calmodulin-dependent protein kinase type 1 (Homo sapiens) (UniProt Q14012); test: Selectivity interaction (ActivX KiNativ screen (kinase selectivity in THP-1 cell lysates)) EUB0000639a CAMK1; type: subcellular; settings: lysate, at 0.01 µM
[9] = biological target: T2, Mitogen-activated protein kinase kinase kinase 19 (Homo sapiens) (UniProt Q56UN5); settings: at 10 µM
T2 sequence (whole entry): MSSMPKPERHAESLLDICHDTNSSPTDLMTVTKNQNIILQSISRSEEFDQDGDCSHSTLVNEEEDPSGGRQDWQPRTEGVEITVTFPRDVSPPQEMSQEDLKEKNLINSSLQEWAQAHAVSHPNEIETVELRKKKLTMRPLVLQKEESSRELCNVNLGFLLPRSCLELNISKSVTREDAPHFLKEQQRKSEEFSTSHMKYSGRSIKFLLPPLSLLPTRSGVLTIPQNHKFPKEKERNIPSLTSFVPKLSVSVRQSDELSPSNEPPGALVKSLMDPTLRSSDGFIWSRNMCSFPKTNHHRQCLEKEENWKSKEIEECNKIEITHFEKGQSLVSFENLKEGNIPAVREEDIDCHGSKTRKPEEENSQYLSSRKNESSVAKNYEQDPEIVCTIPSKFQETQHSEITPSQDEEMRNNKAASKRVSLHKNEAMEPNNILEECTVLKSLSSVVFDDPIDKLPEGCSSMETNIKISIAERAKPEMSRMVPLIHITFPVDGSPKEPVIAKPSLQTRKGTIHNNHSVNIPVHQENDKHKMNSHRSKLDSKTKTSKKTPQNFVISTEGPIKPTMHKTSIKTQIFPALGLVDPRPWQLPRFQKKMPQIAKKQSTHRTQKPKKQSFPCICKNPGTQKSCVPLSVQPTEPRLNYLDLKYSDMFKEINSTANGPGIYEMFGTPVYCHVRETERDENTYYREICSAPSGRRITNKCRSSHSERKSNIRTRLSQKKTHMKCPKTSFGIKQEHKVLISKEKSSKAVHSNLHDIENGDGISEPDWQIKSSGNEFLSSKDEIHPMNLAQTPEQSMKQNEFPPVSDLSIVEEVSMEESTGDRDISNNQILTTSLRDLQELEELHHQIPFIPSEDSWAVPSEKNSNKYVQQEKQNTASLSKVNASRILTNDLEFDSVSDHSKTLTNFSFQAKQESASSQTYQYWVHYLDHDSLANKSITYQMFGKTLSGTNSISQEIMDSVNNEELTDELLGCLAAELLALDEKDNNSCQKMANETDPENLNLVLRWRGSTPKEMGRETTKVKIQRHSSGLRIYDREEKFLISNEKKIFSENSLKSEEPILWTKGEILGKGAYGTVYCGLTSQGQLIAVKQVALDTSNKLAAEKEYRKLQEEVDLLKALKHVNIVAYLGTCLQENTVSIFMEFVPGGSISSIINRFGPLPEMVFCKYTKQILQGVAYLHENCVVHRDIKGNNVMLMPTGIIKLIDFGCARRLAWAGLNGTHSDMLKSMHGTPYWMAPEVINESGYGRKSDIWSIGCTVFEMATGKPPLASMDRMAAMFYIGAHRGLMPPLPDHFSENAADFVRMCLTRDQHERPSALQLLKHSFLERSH

[10] = biological target: Serine/threonine-protein kinase 24 (Homo sapiens) (UniProt Q9Y6E0); settings: at 10 µM
Serine/threonine-protein kinase 24 (Homo sapiens), sequence (Q9Y6E0 whole entry, looked up): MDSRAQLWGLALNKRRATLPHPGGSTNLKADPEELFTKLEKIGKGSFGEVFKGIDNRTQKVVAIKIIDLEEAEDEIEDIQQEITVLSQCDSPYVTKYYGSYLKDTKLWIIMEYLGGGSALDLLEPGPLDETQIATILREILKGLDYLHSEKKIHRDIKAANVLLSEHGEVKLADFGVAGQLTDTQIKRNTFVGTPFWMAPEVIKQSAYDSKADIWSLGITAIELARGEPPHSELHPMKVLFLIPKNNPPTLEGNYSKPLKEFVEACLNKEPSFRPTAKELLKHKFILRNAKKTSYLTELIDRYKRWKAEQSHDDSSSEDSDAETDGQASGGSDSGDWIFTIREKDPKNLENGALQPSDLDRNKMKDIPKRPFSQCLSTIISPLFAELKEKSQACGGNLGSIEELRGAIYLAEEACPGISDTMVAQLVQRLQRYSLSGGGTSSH

Tyrosine-protein kinase Fes/Fps (Homo sapiens), sequence (P07332 whole entry, canonical isoform): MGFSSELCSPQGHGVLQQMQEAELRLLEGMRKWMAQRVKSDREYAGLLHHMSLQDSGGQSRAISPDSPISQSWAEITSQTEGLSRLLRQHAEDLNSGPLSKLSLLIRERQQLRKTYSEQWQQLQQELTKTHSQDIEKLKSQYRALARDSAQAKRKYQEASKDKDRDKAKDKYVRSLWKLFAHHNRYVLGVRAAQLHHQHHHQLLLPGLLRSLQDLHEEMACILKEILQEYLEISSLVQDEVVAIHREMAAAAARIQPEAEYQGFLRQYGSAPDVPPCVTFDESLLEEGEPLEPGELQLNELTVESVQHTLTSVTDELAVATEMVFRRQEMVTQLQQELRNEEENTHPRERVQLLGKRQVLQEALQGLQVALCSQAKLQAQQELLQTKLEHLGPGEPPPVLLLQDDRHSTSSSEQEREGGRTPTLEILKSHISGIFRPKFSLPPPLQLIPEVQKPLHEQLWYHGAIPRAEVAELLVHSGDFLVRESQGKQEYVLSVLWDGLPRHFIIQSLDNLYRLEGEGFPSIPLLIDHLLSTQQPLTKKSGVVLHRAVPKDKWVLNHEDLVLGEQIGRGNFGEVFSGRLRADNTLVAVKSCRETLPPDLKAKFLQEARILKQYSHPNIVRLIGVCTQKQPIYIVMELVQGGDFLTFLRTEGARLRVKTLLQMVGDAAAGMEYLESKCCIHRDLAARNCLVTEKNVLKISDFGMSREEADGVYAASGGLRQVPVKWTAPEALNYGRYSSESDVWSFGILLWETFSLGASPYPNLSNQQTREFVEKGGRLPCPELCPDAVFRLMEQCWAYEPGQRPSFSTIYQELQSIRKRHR
Mitogen-activated protein kinase kinase kinase 11 (Homo sapiens), sequence (Q16584 whole entry, looked up): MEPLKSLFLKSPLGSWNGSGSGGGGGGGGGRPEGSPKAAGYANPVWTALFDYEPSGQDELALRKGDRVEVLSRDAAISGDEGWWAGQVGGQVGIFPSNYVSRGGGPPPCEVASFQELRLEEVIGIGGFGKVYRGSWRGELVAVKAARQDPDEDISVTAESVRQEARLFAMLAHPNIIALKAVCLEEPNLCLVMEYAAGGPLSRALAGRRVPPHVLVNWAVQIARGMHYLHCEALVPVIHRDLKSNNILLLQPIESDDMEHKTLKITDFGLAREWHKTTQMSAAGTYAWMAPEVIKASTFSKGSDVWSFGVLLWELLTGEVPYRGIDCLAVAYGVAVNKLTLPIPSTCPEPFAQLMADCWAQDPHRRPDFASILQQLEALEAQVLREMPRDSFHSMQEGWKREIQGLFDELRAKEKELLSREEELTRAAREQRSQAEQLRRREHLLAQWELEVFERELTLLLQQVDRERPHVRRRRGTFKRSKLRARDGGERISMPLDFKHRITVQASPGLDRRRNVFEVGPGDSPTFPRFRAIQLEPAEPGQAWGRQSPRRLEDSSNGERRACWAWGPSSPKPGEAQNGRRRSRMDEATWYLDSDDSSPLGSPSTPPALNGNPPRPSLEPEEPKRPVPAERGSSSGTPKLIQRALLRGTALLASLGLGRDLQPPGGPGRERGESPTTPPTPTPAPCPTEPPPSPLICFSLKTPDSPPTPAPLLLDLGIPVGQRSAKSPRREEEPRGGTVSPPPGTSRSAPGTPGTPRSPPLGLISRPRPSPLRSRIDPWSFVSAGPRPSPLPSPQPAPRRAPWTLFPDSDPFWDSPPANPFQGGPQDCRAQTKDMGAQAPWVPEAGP
Ribosomal protein S6 kinase beta-1, sequence (P23443 whole entry, looked up): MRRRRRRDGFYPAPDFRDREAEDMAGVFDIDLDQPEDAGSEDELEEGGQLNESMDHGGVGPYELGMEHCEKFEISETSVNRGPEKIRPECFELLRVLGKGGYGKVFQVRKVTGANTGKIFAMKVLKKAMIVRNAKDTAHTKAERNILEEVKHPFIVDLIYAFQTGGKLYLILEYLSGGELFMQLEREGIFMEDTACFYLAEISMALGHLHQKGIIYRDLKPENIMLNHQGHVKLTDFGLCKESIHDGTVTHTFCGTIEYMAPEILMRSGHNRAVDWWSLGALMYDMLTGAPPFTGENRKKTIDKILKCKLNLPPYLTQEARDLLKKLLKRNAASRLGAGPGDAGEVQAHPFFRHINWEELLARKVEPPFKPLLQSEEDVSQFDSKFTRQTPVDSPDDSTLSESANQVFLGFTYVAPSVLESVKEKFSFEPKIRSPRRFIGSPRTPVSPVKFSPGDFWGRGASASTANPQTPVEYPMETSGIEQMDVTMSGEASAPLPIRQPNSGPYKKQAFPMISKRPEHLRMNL
Phosphatidylinositol 4,5-bisphosphate 3-kinase catalytic subunit alpha isoform (Homo sapiens), sequence (P42336 whole entry, canonical isoform): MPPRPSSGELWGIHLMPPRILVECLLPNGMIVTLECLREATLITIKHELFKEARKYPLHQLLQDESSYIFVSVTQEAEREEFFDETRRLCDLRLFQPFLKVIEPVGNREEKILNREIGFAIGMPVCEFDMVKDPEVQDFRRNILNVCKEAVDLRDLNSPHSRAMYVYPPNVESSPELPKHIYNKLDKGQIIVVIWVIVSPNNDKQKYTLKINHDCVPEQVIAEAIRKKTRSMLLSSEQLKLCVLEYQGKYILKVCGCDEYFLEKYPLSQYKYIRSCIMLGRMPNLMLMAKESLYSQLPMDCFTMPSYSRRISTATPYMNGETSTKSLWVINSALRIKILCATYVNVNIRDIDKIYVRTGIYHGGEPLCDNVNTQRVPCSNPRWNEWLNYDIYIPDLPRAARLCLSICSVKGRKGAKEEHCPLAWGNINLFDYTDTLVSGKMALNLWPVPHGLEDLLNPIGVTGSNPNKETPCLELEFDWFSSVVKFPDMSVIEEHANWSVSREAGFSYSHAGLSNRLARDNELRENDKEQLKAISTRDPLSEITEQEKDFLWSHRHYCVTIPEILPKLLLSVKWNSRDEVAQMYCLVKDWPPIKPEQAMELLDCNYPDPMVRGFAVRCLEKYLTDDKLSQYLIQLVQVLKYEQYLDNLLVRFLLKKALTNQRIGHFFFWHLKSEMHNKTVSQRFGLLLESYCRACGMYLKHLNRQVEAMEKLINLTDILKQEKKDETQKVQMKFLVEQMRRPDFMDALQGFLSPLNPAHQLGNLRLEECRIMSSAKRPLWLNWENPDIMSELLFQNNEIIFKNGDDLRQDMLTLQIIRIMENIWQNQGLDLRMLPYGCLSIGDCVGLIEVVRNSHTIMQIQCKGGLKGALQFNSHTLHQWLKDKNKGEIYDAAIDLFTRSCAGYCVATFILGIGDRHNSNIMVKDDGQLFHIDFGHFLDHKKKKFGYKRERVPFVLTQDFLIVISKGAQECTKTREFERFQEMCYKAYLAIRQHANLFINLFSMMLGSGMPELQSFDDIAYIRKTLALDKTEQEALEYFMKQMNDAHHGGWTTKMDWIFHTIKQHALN
Tyrosine-protein kinase ABL2, sequence (P42684 whole entry): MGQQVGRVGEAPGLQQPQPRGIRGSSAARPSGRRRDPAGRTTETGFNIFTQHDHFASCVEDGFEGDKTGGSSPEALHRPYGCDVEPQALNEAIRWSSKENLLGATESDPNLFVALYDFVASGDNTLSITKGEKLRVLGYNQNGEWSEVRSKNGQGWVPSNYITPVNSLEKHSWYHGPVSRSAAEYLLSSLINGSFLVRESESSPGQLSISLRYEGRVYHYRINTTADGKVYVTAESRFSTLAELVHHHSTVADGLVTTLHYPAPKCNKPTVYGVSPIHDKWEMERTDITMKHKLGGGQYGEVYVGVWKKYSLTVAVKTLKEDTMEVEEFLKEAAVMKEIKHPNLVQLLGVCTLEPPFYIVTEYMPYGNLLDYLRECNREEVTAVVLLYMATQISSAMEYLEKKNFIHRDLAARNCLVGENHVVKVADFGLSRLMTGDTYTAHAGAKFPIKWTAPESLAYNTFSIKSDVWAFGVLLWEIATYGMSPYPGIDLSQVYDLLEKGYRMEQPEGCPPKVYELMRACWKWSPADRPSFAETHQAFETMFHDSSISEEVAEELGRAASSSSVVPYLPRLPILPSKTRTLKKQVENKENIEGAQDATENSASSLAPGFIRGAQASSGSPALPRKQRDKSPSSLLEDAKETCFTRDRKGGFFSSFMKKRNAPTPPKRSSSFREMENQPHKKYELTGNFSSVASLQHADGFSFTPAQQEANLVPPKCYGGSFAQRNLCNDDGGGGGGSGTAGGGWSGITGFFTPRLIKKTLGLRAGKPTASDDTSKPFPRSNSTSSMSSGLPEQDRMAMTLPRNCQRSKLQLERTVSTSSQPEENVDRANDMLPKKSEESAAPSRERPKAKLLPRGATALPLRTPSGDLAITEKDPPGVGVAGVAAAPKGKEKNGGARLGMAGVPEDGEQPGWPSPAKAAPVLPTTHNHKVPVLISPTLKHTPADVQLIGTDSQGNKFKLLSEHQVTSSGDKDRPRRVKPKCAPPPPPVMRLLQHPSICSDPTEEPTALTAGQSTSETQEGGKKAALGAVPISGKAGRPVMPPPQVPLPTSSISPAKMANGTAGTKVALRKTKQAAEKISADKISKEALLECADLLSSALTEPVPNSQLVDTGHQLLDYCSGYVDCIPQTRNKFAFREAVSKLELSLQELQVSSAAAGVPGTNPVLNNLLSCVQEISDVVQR

For `Nc1cnc(N2CCc3cc(S(=O)(=O)Nc4c(F)cc(Cl)cc4F)cc(N4CCCC4=O)c32)nc1` [TP-020n], the % of control [1] was 84% and the % of control [2] was 97%.
`CC(C)(O)[C@H](F)CN1Cc2cc(NC(=O)c3cnn4cccnc34)c(N3CCOCC3)cc2C1=O` showed a dTM [3] of 0.3 K.
Work on `CC[C@@H](Nc1c(C#N)c(-c2ccc(-c3cccc(C)c3F)cc2)nc2cnccc12)C(=O)O` [BAY-091] yielded a % of inhibition [4] of 30.9% and a % of inhibition [5] of 21.1%.
`CC[C@@H]1[C@H](F)C(=O)N[C@@H]1COc1nccc2cc(C(N)=O)c(OC)cc12` [ZIMLOVISERTIB] showed a % of inhibition [6] of -5.5%, a % of inhibition [7] of -0.467% and a % of inhibition [8] of 2.7%.
With `Cc1cc([C@@H](C)Nc2ccccc2C(=O)O)c2nc(N3CCOCC3)cc(=O)n2c1` [AZD-6482] the % of control [9] was 100% and the % of control [10] was 100%.
